ChEMBL document CHEMBL5724914, “Linking interpersonal differences in gut microbiota composition and drug biotransformation activity” (2024)

Tests used:
[1] = (§1) The drug is tested on WLS-220 corresponding to human gut metagenome with ENA study accession number: PRJEB37062 and ENA sample accession number: ERS12561769 for biotransformation under anaerobic condition. The drug concentrations were measured over 9 timepoints collected between 0 and 24 hours of incubation by liquid-chromatography-coupled mass spectrometry (LC–MS); settings: 2 µM
[2] = as §1, with “WLS-027” for “WLS-220”, “ERS12561744” for “ERS12561769”; settings: 2 µM
[3] = as §1, with “WLS-010” for “WLS-220”, “ERS12561743” for “ERS12561769”; settings: 2 µM
[4] = as §1, with “WLS-006” for “WLS-220”, “ERS12561741” for “ERS12561769”; settings: 2 µM
[5] = human gut metagenome, 24 h, 2 µM
[6] = human gut metagenome, 24 h, 2 µM; remark: listed apart in the source
[7] = human gut metagenome, 24 h, 2 µM; remark: listed apart in the source
[8] = human gut metagenome, 24 h, 2 µM; remark: listed apart in the source
[9] = human gut metagenome, 24 h, 2 µM; remark: listed apart in the source
Also: call rule not given here.

Compound: Nc1nc(NC2CC2)c2ncn([C@H]3C=C[C@@H](CO)C3)c2n1.Nc1nc(NC2CC2)c2ncn([C@H]3C=C[C@@H](CO)C3)c2n1.O=S(=O)(O)O [ABACAVIR SULFATE]
- Bacterial Biotransformation [1]: Compound metabolized
- Bacterial Biotransformation [2]: Compound NOT metabolized
- Bacterial Biotransformation [3]: Compound NOT metabolized
- Bacterial Biotransformation [4]: Compound metabolized
- Bacterial Biotransformation [5]: Compound NOT metabolized
- Bacterial Biotransformation [6]: Compound metabolized
- Bacterial Biotransformation [7]: Compound metabolized
- Bacterial Biotransformation [8]: Compound metabolized
- Bacterial Biotransformation [9]: Compound metabolized

Compound: CC1Cc2ccccc2N1NC(=O)c1ccc(Cl)c(S(N)(=O)=O)c1 (stereo not given) [INDAPAMIDE]
- Bacterial Biotransformation [1]: Compound NOT metabolized
- Bacterial Biotransformation [2]: Compound NOT metabolized
- Bacterial Biotransformation [3]: Compound NOT metabolized
- Bacterial Biotransformation [4]: Compound NOT metabolized
- Bacterial Biotransformation [5]: Compound NOT metabolized
- Bacterial Biotransformation [6]: Compound NOT metabolized
- Bacterial Biotransformation [7]: Compound NOT metabolized
- Bacterial Biotransformation [8]: Compound NOT metabolized
- Bacterial Biotransformation [9]: Compound NOT metabolized

Compound: O=P1(N(CCCl)CCCl)NCCCO1 (stereo not given) [CYCLOPHOSPHAMIDE ANHYDROUS]
- Bacterial Biotransformation [1]: Compound metabolized
- Bacterial Biotransformation [2]: Compound NOT metabolized
- Bacterial Biotransformation [3]: Compound NOT metabolized
- Bacterial Biotransformation [4]: Compound NOT metabolized
- Bacterial Biotransformation [5]: Compound NOT metabolized
- Bacterial Biotransformation [6]: Compound metabolized
- Bacterial Biotransformation [7]: Compound metabolized
- Bacterial Biotransformation [8]: Compound metabolized
- Bacterial Biotransformation [9]: Compound metabolized

Compound: CN(C)CCOC(C)(c1ccccc1)c1ccccn1.O=C(O)CCC(=O)O (stereo not given) [DOXYLAMINE SUCCINATE]
- Bacterial Biotransformation [1]: Compound NOT metabolized
- Bacterial Biotransformation [2]: Compound NOT metabolized
- Bacterial Biotransformation [3]: Compound NOT metabolized
- Bacterial Biotransformation [4]: Compound NOT metabolized
- Bacterial Biotransformation [5]: Compound NOT metabolized
- Bacterial Biotransformation [6]: Compound NOT metabolized
- Bacterial Biotransformation [7]: Compound NOT metabolized
- Bacterial Biotransformation [8]: Compound NOT metabolized
- Bacterial Biotransformation [9]: Compound NOT metabolized

Compound: CN1CCN2c3ccccc3Cc3ccccc3C2C1 (stereo not given) [MIANSERIN]
- Bacterial Biotransformation [1]: Compound metabolized
- Bacterial Biotransformation [2]: Compound NOT metabolized
- Bacterial Biotransformation [3]: Compound NOT metabolized
- Bacterial Biotransformation [4]: Compound NOT metabolized
- Bacterial Biotransformation [5]: Compound NOT metabolized
- Bacterial Biotransformation [6]: Compound metabolized
- Bacterial Biotransformation [7]: Compound metabolized
- Bacterial Biotransformation [8]: Compound NOT metabolized
- Bacterial Biotransformation [9]: Compound NOT metabolized
